# How the values were obtained:
# [1] = test system: 20-HETE synthase derived from rat kidney microsome; assay: Inhibitory effect of 20-HETE synthase derived from rat kidney microsome; format: biochemical; conditions: SHR rat kidney microsome; for IC50: concentration at which 20-HETE production was inhibited to 50%; for Inhibition (1 µM): inhibition rate of 20-HETE production, subject compound 1 μM, 3H-arachidonic acid, NADPH, 1.5 hours at 37° C., pH 7.4
# Procedure: [Inhibitory Effect of 20-HETE Synthase Derived from Rat Kidney Microsome]
# Regarding the compounds listed in the Table described above, their inhibitory activities on production of 20-HETE were examined.
# This examination was carried out based on the method described in J. Pharmacol. Exp. Ther., Vol. 268, p. 474 (1994).
# The subject compound in an amount of 1 μM was added to a 50 mM of 3-morpholinopropanesulfonic acid buffer (MOPS) (pH 7.4), containing 5 mM of magnesium chloride, and 1 mM of ethylenediaminetetraacetic acid (EDTA) disodium salt.
# Subsequently, the rat kidney microsome fraction prepared from the kidney of a spontaneously hypertensive rat (male, 6 weeks of age) as an enzyme, [5,6,8,9,11,12,14,15] tritium-arachidonic acid (supplied by Amasham) as a substrate, and NADPH (supplied by Sigma) as a coenzyme were added, and were reacted for 1.5 hours at 37° C.
# After the reaction was quenched by adding formic acid (supplied by Wako Pure Chemical Industries Ltd.) to the reaction solution, acetonitrile (final concentration of 50%) was added thereto, and the mixture was allowed to stand for 1.5 hours at room temperature. The amount of 20-HETE production was measured by using a high performance liquid chromatography having a detector for radioactive substances (supplied by Gilson), equipped with an ODS column (Biocyl C18, supplied by Bio-rad).
# Setting an amount of 20-HETE production to 100% when no subject compound was added, the inhibition rate (%) was calculated from the amount of 20-HETE production when a subject compound was added.
# In addition, setting an amount of 20-HETE production to 100% when no subject compound was added, the concentration of the subject compound at which the production of the 20-HETE was inhibited to 50% when the subject compound is added (IC50 value) was also calculated.
structure (smiles),measurement,setting,value
O/N=C/Nc1ccc(OCCc2ccccn2)nc1 [Comp. 5],IC50,[1],14.9 nM
same,melting point,,128.5 to 130 °C
"O/N=C/Nc1ccc(OCc2ccccn2)nc1 [Comp. 6, N-[2-(pyridin-2-ylmethoxy)pyridin-5-yl]-N′-hydroxyformamidine]",melting point,,153.5 to 155.5 °C
COCCOc1ccc(N/C=N/O)cn1 [Comp. 7],IC50,[1],781 nM
same,Inhibition (1 µM),[1],41.9%
same,melting point,,104.5 to 106 °C
CC(C)Oc1ccc(N/C=N/O)cn1 [Comp. 8],IC50,[1],603 nM
same,Inhibition (1 µM),[1],71.0%
same,melting point,,116.5 to 117 °C
O/N=C/Nc1ccc(OCc2ccccc2)nc1 [Comp. 9],IC50,[1],9.1 nM
same,Inhibition (1 µM),[1],82.9%
same,melting point,,163.5 to 164 °C
CCCCOc1ccc(N/C=N/O)cn1 [Comp. 10],IC50,[1],167 nM
same,Inhibition (1 µM),[1],106.3%
same,melting point,,127 to 128 °C
C/C=C/COc1ccc(N/C=N/O)cn1 [Comp. 45],IC50,[1],10.7 nM
same,Inhibition (1 µM),[1],80.3%
same,melting point,,143 to 144.5 °C
CC#CCCOc1ccc(N/C=N/O)cn1 [Comp. 46],IC50,[1],9.8 nM
same,Inhibition (1 µM),[1],89.9%
same,melting point,,151 to 152 °C
CC/C=C/COc1ccc(N/C=N/O)cn1 [Comp. 47],IC50,[1],45.4 nM
same,Inhibition (1 µM),[1],99.2%
same,melting point,,82 to 84 °C
CC(C)CCCOc1ccc(N/C=N/O)cn1 [Comp. 49],Inhibition (1 µM),[1],107.1%
O/N=C/Nc1ccc(OCCCCCc2ccccc2)nc1 [Comp. 50],Inhibition (1 µM),[1],108.2%
CC(C)=CCC/C(C)=C\COc1ccc(N/C=N/O)cn1 [Comp. 51],Inhibition (1 µM),[1],111.0%
CC(C)=CCC/C(C)=C/COc1ccc(N/C=N/O)cn1 [Comp. 52],Inhibition (1 µM),[1],108.7%
CC(C)CCOc1ccc(N/C=N/O)cn1 [Comp. 53],IC50,[1],6.8 nM
same,Inhibition (1 µM),[1],108.5%
same,melting point,,123 to 125 °C
C=CCCCOc1ccc(N/C=N/O)cn1 [Comp. 54],IC50,[1],5.9 nM
same,Inhibition (1 µM),[1],111.7%
same,melting point,,120 to 122 °C
C=CCCOc1ccc(N/C=N/O)cn1 [Comp. 55],Inhibition (1 µM),[1],87.3%
same,melting point,,119 to 120 °C
C#CCCCOc1ccc(N/C=N/O)cn1 [Comp. 56],IC50,[1],14.7 nM
same,Inhibition (1 µM),[1],102.1%
same,melting point,,124.5 to 125.5 °C
O/N=C/Nc1ccc(OCC2CCCCCC2)nc1 [Comp. 57],Inhibition (1 µM),[1],114.2%
C/C=C/C=C/COc1ccc(N/C=N/O)cn1 [Comp. 58],Inhibition (1 µM),[1],106.6%
Cc1ccc(CCOc2ccc(N/C=N/O)cn2)cc1 [Comp. 60],Inhibition (1 µM),[1],109.9%
CC(=O)OCCOc1ccc(N/C=N/O)cn1 [Comp. 62],Inhibition (1 µM),[1],112.8%
COc1ccc(CCCOc2ccc(N/C=N/O)cn2)cc1OC [Comp. 63],Inhibition (1 µM),[1],102.3%
COc1ccc(CCCOc2ccc(N/C=N/O)cn2)cc1 [Comp. 64],Inhibition (1 µM),[1],100.7%
O/N=C/Nc1ccc(OCCc2ccc(Br)cc2)nc1 [Comp. 67],Inhibition (1 µM),[1],108.6%
CCOC(=O)CCCCCOc1ccc(N/C=N/O)cn1 [Comp. 68],Inhibition (1 µM),[1],102.6%
CC(C)=CCCC(C)CCOc1ccc(N/C=N/O)cn1 (centres unmarked) [Comp. 70],Inhibition (1 µM),[1],108.1%
O/N=C/Nc1ccc(OCCCCc2ccccc2)nc1 [Comp. 71],Inhibition (1 µM),[1],99.0%
O/N=C/Nc1ccc(OCc2ccc(Cl)cc2Cl)nc1 [Comp. 74],Inhibition (1 µM),[1],69.3%
O/N=C/Nc1ccc(OCc2ccccc2CCc2ccccc2)nc1 [Comp. 75],Inhibition (1 µM),[1],88.5%
O/N=C/Nc1ccc(OCc2cccc(Oc3ccccc3)c2)nc1 [Comp. 76],Inhibition (1 µM),[1],100.2%
Cc1cccc(COc2ccc(N/C=N/O)cn2)c1 [Comp. 79],Inhibition (1 µM),[1],100.6%
COC(=O)c1ccc(COc2ccc(N/C=N/O)cn2)cc1 [Comp. 83],Inhibition (1 µM),[1],98.8%
O/N=C/Nc1ccc(OCc2ccc(-c3ccccc3)cc2)nc1 [Comp. 84],Inhibition (1 µM),[1],105.3%
CCN(CCOc1ccc(N/C=N/O)cn1)c1cccc(C)c1 [Comp. 85],Inhibition (1 µM),[1],100.8%
COC(=O)COc1ccc(N/C=N/O)cn1 [Comp. 86],Inhibition (1 µM),[1],82.6%
Cn1c(=O)c2c(ncn2CCOc2ccc(N/C=N/O)cn2)n(C)c1=O [Comp. 88],Inhibition (1 µM),[1],71.8%
O/N=C/Nc1ccc(OCCn2cccc2)nc1 [Comp. 90],IC50,[1],4.3 nM
same,Inhibition (1 µM),[1],105.7%
O/N=C/Nc1ccc(OCCSc2ccccc2)nc1 [Comp. 95],Inhibition (1 µM),[1],96.5%
O/N=C/Nc1ccc(SCc2ccc(Cl)cc2)nc1 [Comp. 100],Inhibition (1 µM),[1],79.5%
O/N=C/Nc1ccc(SC2CCCCC2)nc1 [Comp. 101],Inhibition (1 µM),[1],91.8%
CCOC(=O)CSc1ccc(N/C=N/O)cn1 [Comp. 103],Inhibition (1 µM),[1],79.9%
CCCCSc1ccc(N/C=N/O)cn1 [Comp. 105],Inhibition (1 µM),[1],100.5%
CC(C)CCSc1ccc(N/C=N/O)cn1 [Comp. 106],Inhibition (1 µM),[1],77.5%
COC(=O)CSc1ccc(N/C=N/O)cn1 [Comp. 108],Inhibition (1 µM),[1],89.7%
CCCCCSc1ccc(N/C=N/O)cn1 [Comp. 112],Inhibition (1 µM),[1],101.5%
CCCCCCSc1ccc(N/C=N/O)cn1 [Comp. 113],Inhibition (1 µM),[1],81.3%
CCCCCCCSc1ccc(N/C=N/O)cn1 [Comp. 114],Inhibition (1 µM),[1],85.1%
CCCCCCCCCSc1ccc(N/C=N/O)cn1 [Comp. 115],Inhibition (1 µM),[1],89.0%
COC(=O)CCSc1ccc(N/C=N/O)cn1 [Comp. 116],Inhibition (1 µM),[1],93.1%
CCOC(=O)CCSc1ccc(N/C=N/O)cn1 [Comp. 118],Inhibition (1 µM),[1],100.7%
CCN(CC)CCOCCOc1ccc(N/C=N/O)cn1 [Comp. 122],IC50,[1],624 nM
same,Inhibition (1 µM),[1],99.6%
CN(C)CCSc1ccc(N/C=N/O)cn1 [Comp. 126],melting point,,153.5 to 154.5 °C
CCN(CC)CCC(Oc1ccc(N/C=N/O)cn1)C(F)(F)F (centres unmarked) [Comp. 129],melting point,,109 to 111 °C
CCN(CC)CCCC(C)Oc1ccc(N/C=N/O)cn1 (centres unmarked) [Comp. 130],melting point,,122 °C (dec.)
CN(C)CCOc1ccc(N/C=N/O)cn1 [Comp. 131],melting point,,105 to 106 °C
CC(C)(COc1ccc(N/C=N/O)cn1)CN1CCCCC1 [Comp. 134],melting point,,91 to 93 °C

# — patent US6670382B2, “Hydroxyformamidine derivatives and medicines containing the same” (Taisho Pharmaceutical Co., Ltd., priority 2000, dated 2003)
